≈ marks a conversion by molar mass, not a printed value.
Experiments:
[1] = In vivo toxicity analysis; design: species or system ICR mice; settings: acute, i.p. 30 mg/kg, 24 h
Experimental: In vivo toxicity analysis. For acute in vivo toxicity determination, specific ICR female mice (N = 6 per group) were randomly divided into 3 groups. The mice were intraperitoneally injected with EL+ ethanol (vehicle group), or 30 mg/kg of […]=0546 or STK848198. Twenty-four hours post-administration, blood samples were collected from the ophthalmic venous plexus and the hematological parameters of white blood cell count (WBC), neutrophil ratio (N%), red blood cell count (RBC), hemoglobin levels (HGH), and platelet count (PLT) were measured. Meanwhile, serum samples were also collected by centrifuged at 4000 rpm for 10 min. And the biomarkers of alanine aminotransferase (ALT), urea nitrogen (BUN), and creatine kinase (CK) for liver, kidney and heart function monitoring, respectively, were also analyzed. Then, the mice were euthanized, and the organs of heart, liver, spleen, lungs and kidneys were removed and fixed in 4% neutral paraformaldehyde for Hematoxylin and eosin (H&E) staining. In addition, for 7-day in vivo toxicity detection, specific ICR female mice (N=5 per group) were intraperitoneally injected with 30 mg/kg of […]=0546 or STK848198 every day for a total of 7 days. The body weight was monitored, and the blood samples and organs were also collected and analyzed as described above^43.

[2] = tested on: E. faecium; test: MIC determination by microbroth dilution; format: cell-based; settings: Enterococcus faecium
Experimental: (§1) Minimal inhibitory concentration (MIC) determination. The detection of MIC was performed by the microbroth dilution method with reference to the previously report by Wang et al^2. Briefly, the fresh bacterial suspension was adjusted to a McF standard equivalent of 0.5 (~1.5 × 10^8 CFU/mL) and then 100-fold diluted with MH broth. Fifty microliters of bacterial suspension with equal volume of serially diluted compounds (1-128 µg/mL) were added into a 96-well cell plate (Corning Costar, the United States) and incubated at 37°C for 16-18 h. The bacterial suspension without compounds was used as a negative control. The lowest concentration that inhibited visible bacterial growth was considered as the value of MIC.

[3] = tested on: S. epidermidis; test: MIC determination by microbroth dilution; format: cell-based; settings: Staphylococcus epidermidis
Experimental: as §1

[4] = tested on: K. pneumoniae; test: MIC determination by microbroth dilution; format: cell-based; settings: Klebsiella pneumoniae, ATCC700603; ATCC 700603
Experimental: as §1

[5] = tested on: E. coli; test: MIC determination by microbroth dilution; format: cell-based; settings: Escherichia coli, ATCC25922; ATCC 25922
Experimental: as §1

[6] = tested on: E. faecalis; test: MIC determination by microbroth dilution; format: cell-based; settings: Enterococcus faecalis
Experimental: as §1

[7] = tested on: A. baumannii; test: MIC determination by microbroth dilution; format: cell-based; settings: Acinetobacter baumannii, ATCC19606; ATCC 19606
Experimental: as §1

[8] = tested on: P. aeruginosa; test: MIC determination by microbroth dilution; format: cell-based; settings: Pseudomonas aeruginosa, PAO1
Experimental: as §1

[9] = tested on: S. aureus ATCC 43300; test: Concentration-dependent growth inhibition; format: cell-based
Experimental: Concentration-dependent growth inhibition. S. aureus was cultured in TSB to log phase, and diluted with MH broth to ~2×10^6 CFU/mL. One hundred microliters of the bacterial suspension with an equal volume of 2-fold diluted compounds were added in a 96-well cell culture plate. After incubation at 37 ℃ for 16h, the bacterial growth was quantified by measuring the OD value at 630nm (OD630nm).

[10] = tested on: Salmonella typhimurium (TA97a, TA98, TA100, and TA1535) and E. coli WP2 uvrA (pKM101); test: Ames test (overall); format: cell-based
Experimental: Ames test. Genotoxicity of the compounds was determined by Ames Kit (IPHASE, Beijing, China) containing Salmonella typhimurium (TA97a, TA98, TA100, and TA1535) and E. coli WP2 uvrA (pKM101). Diclofenac and 2-aminofluorene were used as positive controls for TA97a and TA98. Methyl methanesulfonate and 2-aminofluorene were used as positive controls for TA100. Methyl methanesulfonate and 2-aminoanthracene were used as positive controls for WP2 uvrA (pKM101). NaN3 and 2-aminoanthracene were used as positive controls for TA1535. The bottom and top layer culture medium, and S9 mixed solution were prepared according to the manufacturer’s instructions. After incubation at 37℃ for 48h, the colonies were counted.

[11] = tested on: S. aureus ATCC 43300; test: S. aureus-related abscess model; format: in vivo, ICR mice; settings: STK848198 combined with AMP, s.c.
Experimental: S. aureus-related abscess model. Six to seven-week-old female, specific pathogen free outbred ICR mice were anesthetized with 1% sodium pentobarbital (50 mg/kg). The back hair was shaved with an electric razor. A 50 μL of S. aureus ATCC 43300 suspension containing 1× 10^8 CFU/ml cells was subcutaneously injected (s.c.) into the back of the mice. The mice were randomized into four groups (N = 5-6 mice per group): (1) Vehicle group, (2) C218-0546 (30 mg/kg) or STK848198 (30 mg/kg) treatment group, (3) Amikacin (25 mg/kg) treatment group, (4) C218-0546 ([…]) treatment group. Each group was administrated by s.c. after 1h post infection. The mice were sacrificed at 24h post infection, and their lesions were removed and homogenized for viable bacterial cells counting. Meanwhile, the lesions were dislocated and immersed in 4% paraformaldehyde for hematoxylin-eosin (H&E) staining, Giemsa staining and immunohistochemical analysis, respectively^22.

[12] = tested on: HSF; test: Cytotoxicity by CCK-8; format: cell-based, human
Experimental: Cytotoxicity assessment by Cell Counting Kit-8 (CCK-8). The CCK-8 (DojinDo, Japan) was used to detect the cytotoxicity of compounds on human cell lines (LO2, HepG2, and HSF). Briefly, log phased cells were diluted with its optimal medium to ~4000 cells/well in a 96-well plate. After incubation at 37 ℃ with 5% CO2 for 24h, the unadhered cells were removed by PBS washing, and serially diluted compounds were added to each well for 24h incubation at 37 ℃ with 5% CO2. Then, 10 µL of CCK-8 was added to each well and the absorbance at 450 nm (A450nm) was recorded after 3 h of incubation^17.

[13] = tested on: Human RBCs; test: Red blood cell (RBC) lysis assay; format: cell-based; settings: 1 h
Experimental: Red blood cell (RBC) lysis assay. Human RBCs (Hemo Pharmaceutical and Biological Co.) were suspended in 1× PBS and diluted to a final concentration of 4% (vol/vol). The RBCs suspension was then incubated with serially diluted compounds at 37°C for 1h. Then, the supernatant was collected by centrifugation and the absorbance at 570 nm […]) was measured. Triton X-100 (0.1%, vol/vol) and DMSO (1%, vol/vol) were served as positive and negative controls, respectively^16.

Cc1nc2c(-c3ccc(Cl)cc3)cnn2c(O)c1Cc1ccccc1 [STK848198]
erythrocyte, leukocyte, platelet parameters, ALT, BUN, CK vs vehicle [1]: No significant difference | MIC ([2]; ATCC19434, ATCC 19434): 8 µg/mL (≈ 22.9 µM) | MIC ([2]; U101, vancomycin resistant strain): 4 µg/mL (≈ 11.4 µM) | MIC ([3]; ATCC12228, ATCC 12228): 1 µg/mL (≈ 2.86 µM) | MIC ([3]; RP62A): 1 µg/mL (≈ 2.86 µM) | MIC [4]: > 32 µg/mL | MIC [5]: > 32 µg/mL | MIC ([6]; ATCC29212, ATCC 29212): 4 µg/mL (≈ 11.4 µM) | MIC ([6]; ATCC51299, ATCC 51299, vancomycin resistant strain): 4 µg/mL (≈ 11.4 µM) | MIC [7]: > 32 µg/mL | MIC [8]: > 32 µg/mL | concentration at which growth inhibition was observed [9]: 0.25 ×MIC | genotoxicity [10]: no genotoxicity | in vivo synergy, viable cell counts in abscess [11]: exhibited synergy | cytotoxicity [12]: no toxicity | hemolysis activity [13]: No hemolysis activity
